From ChEMBL document CHEMBL5518215, “Unlocking Antibacterial Potential: Key-Site-Based Regulation of Antibacterial Spectrum of Peptides” (J Med Chem, 2024)
The source made the active and inactive calls. No cut-off for these calls is given here.

How the values were obtained:
[1] = test system: Escherichia coli; experiment: Antimicrobial activity against Escherichia coli 25922 assessed as absence bacterial growth measured after 18 to 24 hrs incubation in presence of NaCl by NCCLS method; format: functional; details: time 18-24 hrs
[2] = test system: Staphylococcus aureus; experiment: Induction of morphological changes in Staphylococcus aureus 29213 assessed as cavity between cell wall and cytoplasmic membrane by using transmission electron microscopy; format: functional, organism-based
[3] = test system: Staphylococcus aureus; experiment: Effect on inner membrane fluidity in Staphylococcus aureus 29213 assessed as reduction in intracellular membrane fluidity by measuring fluorescence intensity of Laurdan-GP after 60 mins by spectrophotometry; format: functional, organism-based
[4] = test system: Acinetobacter baumannii; experiment: Antimicrobial activity against Acinetobacter baumannii 1.6769 assessed as absence bacterial growth measured after 18 to 24 hrs incubation by NCCLS method; format: functional; details: time 18-24 hrs
[5] = test system: Lipopolysaccharide (LPS); experiment: Binding affinity to Escherichia coli O111:B4 LPS assessed as fluorescence intensity measured after 1 hr by spectrophotometry; format: subcellular; details: dose 2-16 µM
[6] = test system: DNA; experiment: Binding affinity to DNA in Escherichia coli 25922 incubated for 1 hr by electrophoresis; format: nucleic-acid assay
[7] = test system: Escherichia coli; experiment: Antibacterial activity against Escherichia coli 25922 assessed as absence bacterial growth measured after 18 to 24 hrs incubation at pH 4 by NCCLS method; format: functional; details: time 18-24 hrs
[8] = Cytotoxicity against human HEK-293T cells assessed as cell survival rate at 64 uM measured after 8 hrs by MTT assay relative to control; format: toxicity, cell-based; details: read-out: Activity
[9] = test system: Staphylococcus aureus; experiment: Antimicrobial activity against Staphylococcus aureus 25923 assessed as bacterial killing measured after 16 hrs incubation; format: functional
[10] = test system: Listeria monocytogenes; experiment: Antimicrobial activity against Listeria monocytogenes 1.10753 assessed as bacterial killing measured after 16 hrs incubation; format: functional
[11] = test system: Escherichia coli; experiment: Antimicrobial activity against Escherichia coli 25922 assessed as absence bacterial growth measured after 18 to 24 hrs incubation in presence of MgCl2 by NCCLS method; format: functional; details: time 18-24 hrs
[12] = test system: Lipoteichoic acid; experiment: Binding affinity to Staphylococcus aureus LTA assessed as fluorescence intensity measured after 1 hr by spectrophotometry; details: dose 1-64 µM
[13] = test system: Staphylococcus aureus; experiment: Outer membrane permeabilization/cell wall in Staphylococcus aureus 29213 assessed as fluorescence intensity of NPN measured at 2 to 128 uM after 1 hr by spectrophotometry; format: functional, organism-based; details: dose 2-128 µM
[14] = test system: Cell membrane; experiment: Induction of cytoplasmic membrane disruption in Staphylococcus aureus 29213 assessed as increase in fluorescence intensity at 2 to 64 uM by DiSC3-5 probe based assay; format: cell membranes; details: dose 2-64 µM, time <= 30.0 min, TDE = time-dependent effect
[15] = Cytotoxicity against mouse RAW264.7 cells assessed as cell survival rate measured after 8 hrs by MTT assay; format: toxicity, cell-based
[16] = test system: Cell membrane; experiment: Induction of cytoplasmic membrane disruption in Escherichia coli 25922 assessed as increase in fluorescence intensity measured upto 30 mins by DiSC3-5 probe based assay; format: cell membranes; details: dose 2-64 µM
[17] = test system: Cell membrane; experiment: Induction of membrane disruption in Escherichia coli 25922 assessed as increase in extracellular ATP level at 4 to 32 uM measured after 1 hr; format: cell membranes; details: dose 4-32 µM
[18] = test system: Cell membrane; experiment: Induction of cytoplasmic membrane disruption in Staphylococcus aureus 29213 assessed as increase in fluorescence intensity measured upto 30 mins by DiSC3-5 probe based assay; format: cell membranes; details: dose 2-64 µM
[19] = test system: Pseudomonas aeruginosa; experiment: Antimicrobial activity against Pseudomonas aeruginosa 27853 assessed as bacterial killing measured after 16 hrs incubation; format: functional
[20] = test system: Enterococcus faecalis; experiment: Antimicrobial activity against Enterococcus faecalis 29212 assessed as bacterial killing measured after 16 hrs incubation; format: functional
[21] = test system: Escherichia coli; experiment: Effect on inner membrane fluidity in Escherichia coli 25922 assessed as reduction in intracellular membrane fluidity by measuring fluorescence intensity of Laurdan-GP after 60 mins by spectrophotometry; format: functional, organism-based
[22] = Cytotoxicity against human HEK-293T cells assessed as cell survival rate measured after 8 hrs by MTT assay; format: toxicity, cell-based
[23] = Antimicrobial activity against Salmonella pullorum C7913 assessed as bacterial killing measured after 16 hrs incubation; format: functional, Salmonella enterica subsp. enterica serovar Pullorum; details: Salmonella enterica
[24] = test system: Escherichia coli; experiment: Antimicrobial activity against Escherichia coli 25922 assessed as absence bacterial growth measured after 18 to 24 hrs incubation in presence of 50% serum by NCCLS method; format: functional; details: time 18-24 hrs
[25] = test system: Salmonella typhimurium; experiment: Antimicrobial activity against Salmonella typhimurium C7731 assessed as absence bacterial growth measured after 18 to 24 hrs incubation by NCCLS method; format: functional, Salmonella enterica subsp. enterica serovar Typhimurium; details: Salmonella enterica, time 18-24 hrs
[26] = test system: Escherichia coli; experiment: Inhibition of respiratory chain dehydrogenase activity in mid-log phase Escherichia coli 25922 measured after 4 hrs by Red-tetraazoline based spectrophotometry assay
[27] = test system: Staphylococcus aureus; experiment: Antimicrobial activity against Staphylococcus aureus 29213 assessed as absence bacterial growth measured after 18 to 24 hrs incubation by NCCLS method; format: functional; details: time 18-24 hrs
[28] = test system: Escherichia coli; experiment: Antibacterial activity against Escherichia coli 25922 assessed as bactericidal rate by measuring reduction in bacterial count at 1 times MBC concentration measured at 15 secs by time-kill kinetic assay; format: functional; details: time 15 sec; 15 s
[29] = test system: Escherichia coli; experiment: Antibacterial activity against Escherichia coli 25922 assessed as absence bacterial growth measured after 18 to 24 hrs incubation at pH 10 by NCCLS method; format: functional; details: time 18-24 hrs
[30] = test system: Staphylococcus aureus; experiment: Antibacterial activity against Staphylococcus aureus 29213 assessed as bactericidal rate by measuring reduction in bacterial count at 1 times MBC concentration measured at 15 secs by time-kill kinetic assay; format: functional; details: time 15 sec; 15 s
[31] = test system: Escherichia coli; experiment: Antibacterial activity against Escherichia coli 25922 assessed as absence bacterial growth measured after 18 to 24 hrs incubation at pH 6 by NCCLS method; format: functional; details: time 18-24 hrs
[32] = test system: Escherichia coli; experiment: Antimicrobial activity against Escherichia coli 25922 assessed as bacterial killing measured after 16 hrs incubation; format: functional
[33] = test system: Escherichia coli; experiment: Antimicrobial activity against Escherichia coli 25922 assessed as absence bacterial growth measured after 18 to 24 hrs incubation in presence of NH4Cl by NCCLS method; format: functional; details: time 18-24 hrs

**Q.** With H-GKLWLKAGKLWLKGGKLWLKG-NH2 as the substance, how does the MIC [1] read?
**A.** The MIC was 16 µM.

**Q.** And the Activity [2]?
**A.** Its Activity is “Active”.

**Q.** What about the Activity [3] of the same substance?
**A.** The Activity was “Active”.

**Q.** What about the MIC [4] of the same substance?
**A.** Its MIC is 2 µM.

**Q.** What about the Activity [5] of the same substance?
**A.** Its Activity is “Dose-Dependent Effect”.

**Q.** And the Activity [6]?
**A.** The Activity was “Active”.

**Q.** And the MIC [7]?
**A.** The MIC was over 64 µM.

**Q.** And the viability at 8 h, 64 µM [8]?
**A.** Its viability at 8 h, 64 µM is over 80%.

**Q.** And the MBC [9]?
**A.** Its MBC is 4 µM.

**Q.** What about the MBC [10] of the same substance?
**A.** The MBC was over 32 µM.

**Q.** What about the MIC [11] of the same substance?
**A.** The MIC was 8 µM.

**Q.** And the Activity [12]?
**A.** Its Activity is “Dose-Dependent Effect”.

**Q.** What about the permeability [13] of the same substance?
**A.** Its permeability is “Permeable”.

**Q.** And the Activity [14]?
**A.** Its Activity is “Tde”.

**Q.** What about the IC50 at 8 h [15] of the same substance?
**A.** Its IC50 at 8 h is over 64 µM.

**Q.** And the Activity [16]?
**A.** Its Activity is “Dose-Dependent Effect”.

**Q.** What about the Activity [17] of the same substance?
**A.** The Activity was “Active”.

**Q.** And the Activity [18]?
**A.** Its Activity is “Dose-Dependent Effect”.

**Q.** What about the MBC [19] of the same substance?
**A.** The MBC was 8 µM.

**Q.** And the MBC [20]?
**A.** Its MBC is 8 µM.

**Q.** And the Activity [21]?
**A.** The Activity was “Active”.

**Q.** What about the IC50 at 8 h [22] of the same substance?
**A.** Its IC50 at 8 h is over 64 µM.

**Q.** What about the MBC [23] of the same substance?
**A.** Its MBC is 1 µM.

**Q.** What about the MIC [24] of the same substance?
**A.** Its MIC is over 32 µM.

**Q.** And the MIC [25]?
**A.** The MIC was 8 µM.

**Q.** And the inhibition [26]?
**A.** Its inhibition is “Active”.

**Q.** And the MIC [27]?
**A.** Its MIC is 4 µM.

**Q.** What about the “inhibition (INH)” value [28] of the same substance?
**A.** The value was 99.99%.

**Q.** What about the MIC [29] of the same substance?
**A.** The MIC was 2 µM.

**Q.** And the “inhibition (INH)” value [30]?
**A.** The value was 99.99%.

**Q.** What about the MIC [31] of the same substance?
**A.** Its MIC is 2 µM.

**Q.** And the MBC [32]?
**A.** Its MBC is 2 µM.

**Q.** What about the MIC [33] of the same substance?
**A.** The MIC was 2 µM.
